Here are results for 38 compounds from US20140155445A1, “Compounds and Methods for Treating Cancer and Diseases of the Central Nervous System” (Osta Biotechnologies Inc., priority 2007, published 2014).

Where a name gives a salt, the structure may show the parent alone. Read-outs that look alike come from different tables or passages of the source.

One assay deals with T1, HO-2 (rat brain) (Rattus norvegicus, UniProt P23711).
T1 construct: brain microsomes were used as a source of HO-2; from tissue; host or cells: brain microsomal fraction of adult male Sprague-Dawley rats
T1 sequence (P23711 1-315): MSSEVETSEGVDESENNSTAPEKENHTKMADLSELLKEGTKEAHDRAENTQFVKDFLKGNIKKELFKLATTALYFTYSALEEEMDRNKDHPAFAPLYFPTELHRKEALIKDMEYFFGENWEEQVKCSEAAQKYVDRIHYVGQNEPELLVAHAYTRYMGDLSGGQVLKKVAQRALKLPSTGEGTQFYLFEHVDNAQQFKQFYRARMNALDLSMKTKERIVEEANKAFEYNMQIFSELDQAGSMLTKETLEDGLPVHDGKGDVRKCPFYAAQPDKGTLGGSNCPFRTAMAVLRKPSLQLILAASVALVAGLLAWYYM
In words: HO enzymatic activity in rat brain microsomal fraction (CO formed from methemalbumin, gas chromatography). The class given is biochemical.

The target of another assay is T2, HO-1 (rat spleen) (Rattus norvegicus, UniProt P06762).
T2 construct: Spleen microsomes were used as a source of HO-1; from tissue; host or cells: spleen microsomal fraction of adult male Sprague-Dawley rats
T2 sequence (P06762 1-289): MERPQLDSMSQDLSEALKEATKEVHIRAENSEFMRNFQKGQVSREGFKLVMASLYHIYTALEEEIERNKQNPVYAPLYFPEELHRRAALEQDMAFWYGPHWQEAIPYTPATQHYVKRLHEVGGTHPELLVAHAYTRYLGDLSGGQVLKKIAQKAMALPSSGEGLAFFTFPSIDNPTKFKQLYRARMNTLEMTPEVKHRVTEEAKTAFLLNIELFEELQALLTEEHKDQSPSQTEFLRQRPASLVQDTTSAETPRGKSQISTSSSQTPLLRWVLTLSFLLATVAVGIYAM
In words: HO enzymatic activity in rat spleen microsomal fraction (CO formed from methemalbumin, gas chromatography). In kind it is biochemical.

The mark [1] stands for this setting: rat brain microsomes, average ± standard deviation of replicate experiments, read-out: IC50 HO-2 (rat brain)/μM.
Setting [2] is: rat spleen microsomes, average ± standard deviation of replicate experiments, read-out: IC50 HO-1 (rat spleen)/μM.

For the compound `c1ccc(CCC2(Cn3ncnn3)OCCO2)cc1` [2-(2-Phenethyl-[1,3]dioxolan-2-ylmethyl)-2H-tetrazole hydrochloride], the IC50 on HO-2 (rat brain) (setting [1]) was more than 100 µM; at HO-1 (rat spleen) (setting [2]) it was 72 ± 1 µM.

Take `Clc1ccc(C2(Cn3ccnc3)OCCO2)cc1Cl` [1-[2-(3,4-dichloro-phenyl)-[1,3]dioxolan-2-ylmethyl]-1H-imidazole]: the IC50 at HO-2 (rat brain) (setting [1]) is more than 100 µM; at HO-1 (rat spleen) (setting [2]), 8 ± 2 µM.

On to `O=C(Cn1ccnc1)c1ccc(OCc2ccccc2)cc1` [1-(4-Benzyloxy-phenyl)-2-(1H-imidazol-1-yl)-ethanone], for which the IC50 was more than 100 µM at HO-2 (rat brain) (setting [1]) and 11 ± 3 µM on HO-1 (rat spleen) (setting [2]).

Take `COC(=O)Nc1nc2cc(C(=O)c3ccc(F)cc3)ccc2[nH]1` [Flubendazol, reference compound]: the IC50 on HO-2 (rat brain) (setting [1]) and on HO-1 (rat spleen) (setting [2]) was more than 100 µM throughout.

For `[O-][S+](CCCn1ccnc1)c1ccccc1` (stereo not shown) [1-(3-benzenesulfinyl-propyl)-1H-imidazole hydrochloride], the figures for the IC50 on HO-2 (rat brain) (setting [1]) and at HO-1 (rat spleen) (setting [2]) were 22 ± 3 µM and 3.7 ± 0.4 µM, respectively.

In the case of `Clc1ccc(CC[C@@]2(Cn3ccnc3)OC[C@@H](CSc3cccc(Br)c3)O2)cc1` [(2R,4S)-1-{4-(3-bromo-phenylsulfanylmethyl)-2-[2-(4-chloro-phenyl)-ethyl]-[1,3]dioxolan-2-ylmethyl}-1H-imidazole hydrochloride], the results for the IC50 at HO-2 (rat brain) (setting [1]) and on HO-1 (rat spleen) (setting [2]) were 22 ± 9 µM and 5 ± 2 µM, respectively.

Turning to `O=C(CCc1ccccc1)Cn1cncc1Br` [1-(5-Bromo-1H-imidazol-1-yl)-4-phenyl-2-butanone], the IC50 was more than 100 µM at HO-2 (rat brain) (setting [1]) and 22 ± 2 µM at HO-1 (rat spleen) (setting [2]).

On to `CSC[C@@H]1CO[C@@](CCc2ccc(Cl)cc2)(Cn2ccnc2)O1` [(2R,4S)-2-[2-(4-chlorophenyl)ethyl]-2-[(1H-imidazol-1-yl)methyl]-4-[(methylthio)methyl]-1,3-dioxolane hydrochloride], for which the IC50 at HO-2 (rat brain) (setting [1]) was 19 ± 7 µM; at HO-1 (rat spleen) (setting [2]) it was 9 ± 2 µM.

Regarding `O=C(Cn1ccnc1)c1ccc2c(c1)OCCO2` [1-(2,3-dihydro-benzo[1,4]dioxin-6-yl)-2-imidazol-1-yl-ethanone hydrochloride], the IC50 is more than 100 µM at HO-2 (rat brain) (setting [1]) and 73 ± 10 µM at HO-1 (rat spleen) (setting [2]).

For the compound `O=C(Cn1ccnc1)c1cccc(Br)c1` [1-(3-Bromo-phenyl)-2-(1H-imidazol-1-yl)-ethanone hydrochloride], the IC50 stood at 35 ± 3 µM at HO-2 (rat brain) (setting [1]) and 2.1 ± 0.1 µM on HO-1 (rat spleen) (setting [2]).

With `Clc1ccc(CC[C@@]2(Cn3ccnc3)OC[C@@H](CSc3ccc(Br)cc3)O2)cc1` [(2R,4S)-2-[2-(4-chlorophenyl)ethyl]-2-[(1H-imidazol-1-yl)methyl]-4-[{(4-bromophenyl)thio}meth-yl]-1,3-dioxolane hydrochloride], the IC50 at HO-2 (rat brain) (setting [1]) was determined as 2.4 ± 0.1 µM; on HO-1 (rat spleen) (setting [2]), 2.1 ± 0.9 µM.

As to `Cc1ccc(S(=O)(=O)OC[C@H]2CO[C@](CCc3ccc(Cl)cc3)(Cn3ccnc3)O2)cc1` [(2S,4R)-2-[2-(4-chlorophenyl)ethyl]-2-[(1H-imidazol-1-yl)methyl]-4-[(p-toluenesulfonyloxy)meth-yl]-1,3-dioxolane], the IC50 amounted to 120 ± 34 µM on HO-2 (rat brain) and 17 ± 1 µM at HO-1 (rat spleen).

On to `O=C(c1ccccc1)C(c1ccccc1)n1ccnc1` (racemic) [(±)-2-imidazol-1-yl-1,2-diphenyl-ethanone hydrochloride], for which the IC50 was more than 100 µM at HO-2 (rat brain) (setting [1]) and 24 ± 6 µM at HO-1 (rat spleen) (setting [2]).

`O=C(CCCc1ccccc1)Cn1ccnc1` [1-imidazol-1-yl-5-phenyl-pentan-2-one hydrochloride]: the IC50 came out at 6 ± 0.1 µM on HO-2 (rat brain) (setting [1]) and 1.5 ± 0.2 µM on HO-1 (rat spleen) (setting [2]).

For `COc1ccc(CCN2CCC(Nc3nc4cc(Cl)c(Cl)cc4n3Cc3ccc(F)cc3)CC2)cc1`, the IC50 at HO-2 (rat brain) (setting [1]) and on HO-1 (rat spleen) (setting [2]) was more than 100 µM each time.

Regarding `O=C(Cn1cncn1)c1cc(Cl)ccc1Cl` [1-(2,5-Dichloro-phenyl)-2-[1,2,4]triazol-1-yl-ethanone], the IC50 is more than 100 µM at HO-2 (rat brain) (setting [1]) and 18.4 ± 0.5 µM on HO-1 (rat spleen) (setting [2]).

Take `OC(Cn1ccnc1)c1ccc(CCc2ccccc2)cc1` (racemic) [(±)-2-imidazol-1-yl-1-(4-phenethyl-phenyl)-ethanol]: the IC50 came out at 1 ± 1 µM at HO-2 (rat brain) (setting [1]) and 0.225 ± 0.004 µM at HO-1 (rat spleen) (setting [2]).

Turning to `O=C(CCc1ccccc1)CCn1ccnc1` [1-imidazol-1-yl-5-phenyl-pentan-3-one hydrochloride], the IC50 came to 114 ± 56 µM at HO-2 (rat brain) (setting [1]) and 28 ± 6 µM at HO-1 (rat spleen) (setting [2]).

In the case of `Nc1ccc(SC[C@@H]2CO[C@@](CCc3ccc(Cl)cc3)(Cn3ccnc3)O2)cc1` [(2R,4S)-2-[2-(4-chlorophenyl)ethyl]-2-[(1H-imidazol-1-yl)methyl]-4-[{(4-aminophenyl)thio}meth-yl]-1,3-dioxolane hydrochloride], the results for the IC50 on HO-2 (rat brain) (setting [1]) and on HO-1 (rat spleen) (setting [2]) were 8 ± 1 µM and 0.33 ± 0.07 µM, respectively.

For `C[C@@H]1CO[C@@](CCc2ccc(Cl)cc2)(Cn2ccnc2)O1` [(2R,4R)-2-[2-(4-chlorophenyl)ethyl]-2-[(1H-imidazol-1-yl)methyl]-4-methyl-1,3-dioxolane hydrochloride], the IC50 on HO-2 (rat brain) (setting [1]) is 305 ± 25 µM; at HO-1 (rat spleen) (setting [2]), 0.8 ± 0.2 µM.

As for `Fc1ccc(COC(Cn2ccnc2)c2ccc(-c3ccc(Br)cc3)cc2)cc1` (racemic) [(±)-1-[2-(4′-bromo-biphenyl-4-yl)-2-(4-fluoro-benzyloxy)-ethyl]-1H-imidazole], the IC50 on HO-2 (rat brain) (setting [1]) was more than 100 µM; on HO-1 (rat spleen) (setting [2]), 5 ± 2 µM.

On to `Clc1ccc(OCCCCCNc2nc3ccccc3[nH]2)cc1` [(1H-Benzoimidazol-2-yl)-[5-(4-chloro-phenoxy)-pentyl]-amine], for which the IC50 at HO-2 (rat brain) (setting [1]) is approximately 105 µM; on HO-1 (rat spleen) (setting [2]) it was approximately 98 µM.

Consider `c1ccc(OCCn2ccnc2)cc1` [1-(2-phenoxy-ethyl)-1H-imidazole hydrochloride], for which the values for the IC50 at HO-2 (rat brain) (setting [1]) and on HO-1 (rat spleen) (setting [2]) were more than 100 µM and 61 ± 29 µM, respectively.

In the case of `O=C(Cn1ccnc1)c1ccc2ccc3cccc4ccc1c2c34` [2-Imidazol-1-yl-1-pyren-1-yl-ethanone hydrochloride], the IC50 was more than 100 µM at HO-2 (rat brain) (setting [1]) and 14 ± 3 µM at HO-1 (rat spleen) (setting [2]).

Regarding `c1ccc2cc(C3(Cn4cncn4)OCCO3)ccc2c1` [1-(2-naphthalen-2-yl-[1,3]dioxolan-2-ylmethyl)-1H-[1,2,4]triazole], the IC50 on HO-2 (rat brain) (setting [1]) is more than 100 µM; on HO-1 (rat spleen) (setting [2]), 3.58 ± 0.08 µM.

Regarding `O=C(Cn1cncn1)c1cccc2ccccc12` [1-naphthalen-1-yl-2-[1,2,4]triazol-1-yl-ethanone hydrochloride], the IC50 on HO-2 (rat brain) (setting [1]) was determined as 16 ± 5 µM; on HO-1 (rat spleen) (setting [2]) it was 0.79 ± 0.04 µM.

Take `CSc1ncnn1CC(=O)CCc1ccccc1` [1-(5-Methylsulfanyl-[1,2,4]triazol-1-yl)-4-phenyl-butan-2-one hydrochloride]: the IC50 at HO-2 (rat brain) (setting [1]) and on HO-1 (rat spleen) (setting [2]) was more than 100 µM throughout.

For `Clc1ccc(C(Cn2ccnc2)NCc2ccccc2)cc1` (racemic) [(±)-benzyl-[1-(4-chloro-phenyl)-2-imidazol-1-yl-ethyl]amine dihydrochloride], the IC50 at HO-2 (rat brain) (setting [1]) amounted to 22 ± 4 µM; at HO-1 (rat spleen) (setting [2]), 3.39 ± 0.08 µM.

`Clc1ccc(CC[C@@]2(Cn3ccnc3)OC[C@@H](CSc3ccc(Cl)cc3)O2)cc1` [(2R,4S)-2-[2-(4-chlorophenyl)ethyl]-2-[(1H-imidazol-1-yl)methyl]-4-[{(4-chlorophenyl)thio}meth-yl]-1,3-dioxolane hydrochloride]: the IC50 came to 12 ± 5 µM at HO-2 (rat brain) (setting [1]) and 2.8 ± 0.4 µM at HO-1 (rat spleen) (setting [2]).

With `O=C(CCc1ccccc1)Cn1ccnc1-c1ccccc1` [4-phenyl-1-(2-phenyl-imidazol-1-yl)butan-2-one hydrochloride], the IC50 on HO-2 (rat brain) (setting [1]) and on HO-1 (rat spleen) (setting [2]) was more than 100 µM each time.

For the compound `O=C(CCc1ccccc1)Cn1cnc(-c2ccccc2)c1` [drawing 162, 4-Phenyl-1-(4-phenyl-imidazol-1-yl)-butan-2-one hydrochloride], the IC50 on HO-2 (rat brain) (setting [1]) is more than 100 µM; at HO-1 (rat spleen) (setting [2]), 32 ± 2 µM.

As for `Clc1ccc(C2(Cn3ccnc3)OCCO2)cc1` [1-[2-(4-chloro-phenyl)-[1,3]dioxolan-2-ylmethyl]-1H-imidazole hydrochloride], the IC50 at HO-2 (rat brain) (setting [1]) is more than 100 µM; at HO-1 (rat spleen) (setting [2]), 19 ± 3 µM.

In the case of `[O-][S+](CCCCn1ccnc1)c1ccccc1` (stereo not shown) [1-(4-benzenesulfinyl-butyl)-1H-imidazole hydrochloride], the IC50 on HO-2 (rat brain) (setting [1]) worked out at 31 ± 5 µM; on HO-1 (rat spleen) (setting [2]), 18.44 ± 0.04 µM.

For the compound `O=C(Cn1cncn1)c1ccc(Cl)cc1Cl` [1-(2,4-dichloro-phenyl)-2-[1,2,4]triazol-1-yl-ethanone], the IC50 was more than 100 µM on HO-2 (rat brain) (setting [1]) and 4.1 ± 0.9 µM at HO-1 (rat spleen) (setting [2]).

Consider `CCOC(=O)N1CCC(Nc2nc3ccccc3n2Cc2ccc(F)cc2)CC1`, for which the IC50 at HO-2 (rat brain) (setting [1]) and on HO-1 (rat spleen) (setting [2]) was more than 100 µM throughout.

With `c1ccc(SCCn2ccnc2)cc1` [1-(2-phenylsulfanyl-ethyl)-1H-imidazole hydrochloride], the IC50 at HO-2 (rat brain) (setting [1]) is more than 100 µM; on HO-1 (rat spleen) (setting [2]), 6 ± 0.1 µM.

As to `O=C(Cn1cncn1)c1ccc2ccccc2c1` [1-Naphthalen-2-yl-2-[1,2,4]triazol-1-yl-ethanone hydrochloride], the figures for the IC50 at HO-2 (rat brain) (setting [1]) and at HO-1 (rat spleen) (setting [2]) were 42 ± 10 µM and 0.7 ± 0.1 µM, respectively.

As to `O=C(CCc1ccccc1)Cn1nnnc1-c1ccccc1` [4-Phenyl-1-(5-phenyl-tetrazol-1-yl)-butan-2-one], the IC50 on HO-2 (rat brain) (setting [1]) and on HO-1 (rat spleen) (setting [2]) was more than 100 µM throughout.
